According to article PMC6934184, “Selective DNA-PKcs inhibition extends the therapeutic index of localized radiotherapy and chemotherapy” (The Journal of Clinical Investigation, 2019):

Target: T1, BRSK2 (Homo sapiens, UniProt Q8IWQ3)
T1 construct: purchased Thermo Fisher Scientific (Life Technologies) SelectScreen
Test: SelectScreen LanthaScreen
Type: binding
Conditions: read-out: % displacement
Procedure, shortened: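 NU5455 was profiled across the SelectScreen Broad panel of kinase activity and binding assays. Z'LYTE reactions such as CSF1R ran at apparent Km ATP, while the Adapta CAMK1 assay used ATP listed as 10. Values are given as percent.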

T1 sequence (Q8IWQ3 whole entry): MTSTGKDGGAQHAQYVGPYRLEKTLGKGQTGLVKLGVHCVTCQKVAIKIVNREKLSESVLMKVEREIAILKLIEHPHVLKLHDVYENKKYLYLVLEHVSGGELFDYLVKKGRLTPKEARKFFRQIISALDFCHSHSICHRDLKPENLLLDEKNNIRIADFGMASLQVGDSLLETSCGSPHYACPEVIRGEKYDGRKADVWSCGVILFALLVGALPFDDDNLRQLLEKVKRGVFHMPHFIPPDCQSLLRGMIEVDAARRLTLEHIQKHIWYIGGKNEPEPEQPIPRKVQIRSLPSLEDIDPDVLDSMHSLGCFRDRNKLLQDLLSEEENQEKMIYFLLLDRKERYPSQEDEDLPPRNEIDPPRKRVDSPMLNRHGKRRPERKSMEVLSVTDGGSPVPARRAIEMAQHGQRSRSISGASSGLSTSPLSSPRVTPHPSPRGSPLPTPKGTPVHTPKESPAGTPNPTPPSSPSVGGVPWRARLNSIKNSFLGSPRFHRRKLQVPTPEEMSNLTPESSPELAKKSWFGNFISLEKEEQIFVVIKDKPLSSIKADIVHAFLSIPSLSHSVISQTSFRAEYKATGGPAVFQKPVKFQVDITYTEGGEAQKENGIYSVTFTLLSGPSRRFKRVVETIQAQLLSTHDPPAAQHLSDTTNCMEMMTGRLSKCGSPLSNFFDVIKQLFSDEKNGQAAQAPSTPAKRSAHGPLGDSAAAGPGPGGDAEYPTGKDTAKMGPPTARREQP

Work on `CN(C(=O)CN1CCOCC1)c1ccc2sc3c(-c4cccc5c(=O)cc(N6CC7CCC(C6)O7)oc45)cccc3c2c1` [NU5455] yielded an inhibition at 1 µM of 1.2%.
